{"source": "patent US20080050443A1", "about": "“Fast Release Composition Including Melt Granules of a Moisture Sensitive Drug and Process for Manufacturing Thereof” (priority 2004, published 2008)", "experiment": "Moisture sensitivity of Compound I", "type": "physicochemical", "excerpt": "This monohydrochloride of formula (I) (hereinafter, “Compound I”) is described in scheme 2 of Villhauer et al., J Med Chem, Vol. 45, No. 12, pp. 2362-65 (2002), which is hereby incorporated by reference. Compound I is a moisture-sensitive therapeutic compound. At humidities above 75%, Compound I absorbs moisture and begins to deliquesce; moreover, Compound I undergoes both acidic and basic degradation with cyclic imidate (“CI”) being the major degradation product.", "data": [{"smiles": "Cl.N#Cc1ccc(NCCNCC(=O)N2CCC[C@H]2C#N)nc1", "note": "[Compound I, [S]-1-[2-(5-cyano-2-pyridinylamino)ethylamino]acetyl-2-pyrolidine carbonitrile monohydrochloride]", "values": [{"measurement": "humidity at which Compound I absorbs moisture and begins to deliquesce", "value": "above 75%"}]}]}
